The term IC50 denotes the concentration that gives 50% inhibition.

Activity calls are given as the source filed them. The calls are words filed in the database; no cut-off is given here.

Activity, IC50 and Time data for 14 compounds are collected here from ChEMBL document CHEMBL1141519, “Pyrogallol and its analogs can antagonize bacterial quorum sensing in Vibrio harveyi” (Bioorg Med Chem Lett, 2008).

One assay has as its system Vibrio harveyi. Description: Growth inhibition of Vibrio harveyi assessed as time required to double bacterial growth relative to control. Format: functional, organism-based.
Turning to `O=C(O)c1ccc(O)c(O)c1O`, the result was inactive. As for `O=Cc1cc(O)c(O)c(O)c1`, the outcome was inactive. On to `O=c1ccc2ccc(O)c(O)c2o1` [DAPHNETIN], for which the result was inactive. `CCOC(=O)c1oc(C(=O)OCC)c(O)c1O`: the result was inactive. Still for that read-out and setting: the same measure for `Oc1ccccc1O` [CATECHOL]: “inactive”; for `O=C(O)c1cc(O)c(O)c(O)c1` [GALLIC ACID]: “inactive”; for `O=Cc1ccc(O)c(O)c1O`: “inactive”.

For the compound `CC(=O)c1ccc(O)c(O)c1O` [GALLACETOPHENONE], the outcome was inactive. The same measure, in the same setting: the same measure for `O[C@@H]1CCC[C@@H]1O`: “inactive”; for `O=C(c1ccccc1)c1ccc(O)c(O)c1O`: “inactive”. Same read-out and setting: the same measure for `N#CC(C#N)=Cc1cc(O)c(O)c(O)c1`: “inactive”.

For `Oc1cccnc1O`, the result was inactive.

The target of another assay is Autoinducer 2-binding periplasmic protein LuxP (Vibrio harveyi, UniProt P54300). Description: Antagonist activity at LuxP receptor in Vibrio harveyi MM32 assessed as inhibition of autoinducer-2-mediated quorum sensing after 3 to 4 hrs. Format: functional.
Chain of Autoinducer 2-binding periplasmic protein LuxP (P54300 whole entry): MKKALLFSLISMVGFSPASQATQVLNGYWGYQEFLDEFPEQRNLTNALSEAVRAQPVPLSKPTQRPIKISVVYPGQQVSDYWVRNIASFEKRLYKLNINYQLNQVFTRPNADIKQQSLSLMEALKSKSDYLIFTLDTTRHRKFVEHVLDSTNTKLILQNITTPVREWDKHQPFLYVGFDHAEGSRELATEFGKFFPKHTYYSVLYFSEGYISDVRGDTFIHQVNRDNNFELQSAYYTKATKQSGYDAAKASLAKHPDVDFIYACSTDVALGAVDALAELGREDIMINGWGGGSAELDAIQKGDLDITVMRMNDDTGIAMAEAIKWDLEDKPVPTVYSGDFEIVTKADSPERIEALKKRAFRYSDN
Turning to `O=C(O)c1ccc(O)c(O)c1O`, the IC50 turned out to be 61 µM.

In the case of `O=Cc1cc(O)c(O)c(O)c1`, the concentration for half-maximal inhibition (IC50) is 12 µM. For `O=c1ccc2ccc(O)c(O)c2o1` [DAPHNETIN], the IC50 amounted to 12 µM. Still for that read-out and setting: the same measure for `Oc1cccc(O)c1O` [PYROGALLOL]: 2 µM; for `Oc1ccccc1O` [CATECHOL]: 59 µM; for `O=C(O)c1cc(O)c(O)c(O)c1` [GALLIC ACID]: 50 µM. Regarding `O=Cc1ccc(O)c(O)c1O`, the IC50 was 4 µM. Still for that read-out and setting: the same measure for `NCCc1cc(O)c(O)c(O)c1`: 22 µM; for `CC(=O)c1ccc(O)c(O)c1O` [GALLACETOPHENONE]: 21 µM. Still for that read-out and setting: the same measure for `O=C(c1ccccc1)c1ccc(O)c(O)c1O`: 4 µM.

The next assay has as its system Vibrio harveyi. Description: Growth inhibition of Vibrio harveyi assessed as time required to double bacterial growth at 20 uM. Format: functional.
As for `Oc1cccc(O)c1O` [PYROGALLOL], the Time turned out to be 82 min.
